“Also recorded” adds a separate entry of the source.
Experiments:
Swiss Webster mice = assay: PTZ proconvulsant test; type: in vivo, Mouse; conditions: 30 mg/kg or less p.o., 30 minutes before PTZ infusion
Procedure: Follow on studies of CX717 and 1739 are continuing, employing additional well-known models for SCI drug efficacy, coupled with a variety of ongoing safety studies. Preliminary safety studies already completed have included a range of toxicity studies focusing on critical convulsant risks widely observed for previously-studied ampakines. Using the well-known PTZ Proconvulsant test, non-GLP safety studies were conducted to examine proconvulsant activity of CX717. Swiss Webster mice (n=12/group) were dosed with CX717 (3, 10 or 30 mg/kg p.o.), vehicle (0.5% methocel p.o.) or a positive control, CGS8216 (10 mg/kg in 70% PEG300: 30% water i.p.). Thirty minutes later, the GABA-A antagonist, pentylenetetrazol (PTZ) was infused in the tail vein until tonic seizures were observed. The time at which the first clonic and tonic seizure was observed was noted and used to determine the dose of PTZ necessary to induce both clonic and tonic seizure.

[1] = test system: adult patients with Attention-Deficit Hyperactive Disorder (ADHD); assay: Phase 2 randomized, double-blind, 2-period crossover study in adult ADHD; type: in vivo, human; conditions: for ADHD-RS hyperactivity subscale mean score: ITT
Procedure: *This phase 2 study evaluated the efficacy, tolerability and safety of CX717 in the treatment of adult patients with Attention-Deficit Hyperactive Disorder (ADHD). The study was designed and executed as a randomized, double-blind, multi-center, 2-period crossover study comparing 2 doses of CX717 (200 mg, or 800 mg, BID) with placebo. Each treatment period lasted 3 weeks with a 2-week washout in between. Subjects met DSM-IV criteria for adult ADHD and had moderate to severe symptoms. The primary efficacy measure was the change from baseline on the ADHD Rating Scale (ADHD-RS) with adult ADHD prompts. A total of 68 male subjects, who were 19 to 50 years old and met criteria of Adult ADHD as defined by DSM IV, were randomized After accounting for early study dropouts, 51 subjects (75%) returned for efficacy assessments and completed both treatment periods (intent-to-treat population). […] Treatment with CX717 was well tolerated with no clinically significant changes in cardiovascular and other safety parameters with either dose. Sleep disturbances and headache were the most frequently reported adverse events.
The present study further examined the clinical efficacy, tolerability and safety of CX717 as a drug treatment for adults with ADHD. Eligible subjects were randomized to 1 of 4 possible treatment sequences in which they received placebo (P) and either high dose (H) or low dose (L) of active treatment in random order (PL, PH, LP, and HP). Each treatment period was 3 weeks in duration with a 2-week washout in between. The study design was modeled after several similarly published ADHD studies with atomoxetine and stimulants, with sample sizes in the mid-20s. Since this is the first such study with CX7171 in ADHD, it is assumed that efficacy would be achieved using historical assumptions in effect size, therefore, a total of 60 subjects were to be randomized.
All patients met DSM-IV criteria for adult ADHD, established by the Adult ADHD Clinical Diagnostic Scale (ACDS) Version 1.2. All patients gave written informed consent prior to enrollment and the conduct of the study was approved by either the […] Review Board (IRB) at each site or by the central IRB. Each subject had at least moderately severe ADHD symptoms (ADHD-RS score of ≥22; Clinician's Global Impression of Severity [CGI-S] score of ≥4). Each subject was male, and between 18-50 years old, inclusively. Male patients were selected because the necessary reproductive toxicology studies that would have allowed women of childbearing potential to be included in the study had not been completed.
Subjects were excluded if they were taking medication specifically for treatment of ADHD symptoms (e.g., stimulants, atomoxetine, tricyclic antidepressants, or bupropion). ADHD treatments were discontinued (stimulants for 2 weeks and non-stimulant for 4 weeks) prior to the Period 1 baseline visit. Subjects were also excluded if they were taking antidepressants, anticonvulsants, or antipsychotics.
CX717 capsules were administered orally as 200 mg BID or 800 mg BID doses. Matching placebo capsules were identical in appearance to the capsules containing active drug, and were administered orally. The study was divided into a series of periods: screening period—up to 4 weeks, treatment period 1-3 weeks; wash-out period—2 weeks; treatment period 2-3 weeks; follow-up period—approximately 1 week.
ADHD recovery drug efficacy was assessed using the Adult ADHD Rating Scale (DuPaul, 1998) with prompts ([…]) (Adler & Cohen, 2004). The primary efficacy outcome measure was the comparison of each dose of CX717 versus placebo on the change from baseline in ADHD symptoms as measured by the ADHD-RS at Week 3. Secondary efficacy parameters included comparisons of each dose of CX717 versus placebo for the ADHD-RS Inattentiveness Subscale Score of the ADHD-RS.
Safety was evaluated by adverse events (AEs), clinical laboratory tests, vital signs, physical examination, and electrocardiograms (ECGs). […]

adult rats = assay: Phrenic burst amplitude after C2 spinal cord hemisection (C2Hx); type: in vivo, Rat; conditions: two weeks after C2Hx, 15 mg/k, i.v.
Description: In a preliminary examination of the therapeutic potential of ampakines for treating SCI, Wollman and coworkers (2020^16) reported that ampakines may stimulate phrenic activity after incomplete cervical spinal cord injury (SCI) in anesthetized rats. […] To competently address the role of ampakines in alleviating neural and motor function deficits in SCI subjects, Applicants present herein a range of findings, illustrating a diverse array of potent ampakine activities effective for SCI treatment. Among these findings, two low impact ampakines, CX717 and CX1739, potently stimulate diaphragm muscle activation and breathing in freely moving, non-anesthetized rats following SCI. ^16 Wollman L B, Streeter K A, Fusco Gonzalez-Rothi E J, Sandhu M S, Greer J J, Fuller D D. Exp Neural. 2020 December; 334:113 doi: 10.1016/j.expneurol.2020.113465. Epub 2020 September PMID: 32949571.
Exemplifying the efficacy of combining Ampakine SCI treatment with secondary therapeutic intervention, Applicants determined in a predictive animal model that pairing ampakine treatment with a single bout of acute hypoxia (5-min, arterial partial pressure of O2˜50 mmHg) beneficially impacts phrenic bursting, with some rats showing a large facilitation that exceeds the response compared to ampakine-only treated subjects. […]

[2] = test system: non-selective alpha1 adrenergic receptor; assay: Alpha1 adrenergic receptor radioligand binding; conditions: 100 μM
[3] = high dose (800 mg BID), after 3 weeks

Structure (SMILES)	Dose of PTZ required to elicit a seizure (proconvulsant activity) (Swiss Webster mice)	ADHD-RS outcome measures, low dose versus placebo ([1]; 200 mg BID)	ADHD-RS total and subscales, high dose versus placebo, repeated measures analysis ([1]; 800 mg BID, at endpoint)	ADHD-RS hyperactivity subscale mean score ([1]; active dose (both doses), last value)	Difference from placebo in mean change of ADHD-RS total score [1, 3]	Mean change from baseline of ADHD-RS total score [1, 3]	ADHD-RS hyperactivity subscale mean score ([1]; high dose, Week 1)	ADHD-RS hyperactivity subscale mean score ([1]; high dose, Week 3)	ADHD-RS hyperactivity subscale mean score ([1]; high dose, last value)	Increase of contralateral (CL) phrenic burst amplitude (adult rats)	Increase of ipsilateral (IL) phrenic burst amplitude (adult rats)	Inhibition of reference ligand binding, non-selective alpha1 adrenergic receptor [2]
O=C(c1ccc2nonc2c1)N1CCOCC1 [CX717, 1-(benzofurazan-5-ylcarbonyl)morpholine]	did not decrease the dose of PTZ required to elicit a seizure	no statistically significant differences; also recorded: did not differ from placebo	superior efficacy compared to placebo	−4.10	−4.73	−9.95	−4.22	−5.68	−5.57	47±26 % BL	61±46 % baseline, BL	–
CN(C(=O)c1ccc2nonc2c1)C1CCOCC1 [CX1739, N-Methyl-N-tetrahydro-2H-pyran-4-yl-[2,1,3]-benzoxadiazole-5-carboxamide]	–	–	–	–	–	–	–	–	–	–	–	67%

Reference: US20240100023A1, “Compositions and Methods For Treating Spinal Cord Injuries” (priority 2020, published 2024)
